Data published in patent US10189809B2, “SGC stimulators” (Ironwood Pharmaceuticals, Inc., priority 2010, dated 2019).
Like-named read-outs stand apart in the source and are kept apart here.

Columns and labels:
[1] = molecular target: soluble guanylate cyclase (sGC) (Homo sapiens (Human), UniProt Q02108+Q02153); experiment: sGC-HEK-cGMP assay run with SNP incubation (HEK WC assay); assay type: cell-based
Experimental: Human embryonic kidney cells (HEK293), endogenously expressing soluble guanylate cyclase (sGC), were used to evaluate the activity of test compounds. Compounds stimulating the sGC receptor should cause an increase in the intracellular concentration of cGMP. HEK 293 cells were seeded in Dulbecco's Modification of Eagle's Medium supplemented with fetal bovine serum (10% final) and L-glutamine (2 mM final) in a 200 μL volume at a density of 1×10^5 cells/well in a poly-D-lysine coated 96 well flat bottom plate and grown overnight at 37° C. Medium was aspirated and cells were washed with 1× Hank's Buffered Saline Salt Solution (200 μL). Cells were then incubated for 15 minutes at 37° C. with 0.5 mM 3-isobutyl-1-methylxanthine (200 μL). Test article and sodium nitroprusside were then added to the assay mixture (2 μL each) and incubated at 37° C. for 10 minutes. After the 10 minute incubation, the assay mixture was aspirated and 0.1M HCl (200 μL) was added to the cells. The plate was incubated at 4° C. for 30 minutes in the 0.1M HCl to stop the reaction and lysed the cells. The plates were then centrifuged at 1,200 g for 5 minutes at room temperature. Supernatants were collected and transferred to a new flat bottom 96 well plate for analysis. Vehicle controls were carried out using DMSO (1%). […] Samples were diluted with an equal volume of 1 M Ammonium Acetate (pH 7) to neutralize samples for better chromatography. […] EC50 values were calculated from concentration-response curves generated with GraphPad Prism Software.

[2] = molecular target: Human soluble guanylate cyclase enzyme (hsGC) (Homo sapiens (Human), UniProt Q02108+Q02153); experiment: Purified human sGC enzyme activity assay; assay type: biochemical; conditions: for sGC Enzyme (specific activity at 10 μM) / sGC Enzyme (fold increase at 10 μM without SNP) / sGC Enzyme (fold increase at 10 μM): 10 μM compound; for sGC Enzyme (specific activity at 30 μM) / sGC Enzyme (fold increase at 30 μM without SNP) / sGC Enzyme (fold increase at 30 μM): 30 μM compound; for sGC Enzyme (fold increase at 10 μM) / sGC Enzyme (fold increase at 30 μM): without the addition of SNP
Experimental: Human soluble guanylate cyclase enzyme (hsGC) obtained from Enzo Inc. (P/N: ALX-201-177) was used to evaluate the activity of test compounds. The assay reactions contained 0.1 M Tris (pH 8.0), 0.5 mg/mL BSA (pH 8.0), 2 mM DTT, 2 mM MgCl2, 300 μM GTP, 1 mM 3-isobutyl-1-methylxanthine (IBMX) and 5 ng human soluble guanylate cyclase enzyme. Test compounds in DMSO were then added (2 μL, 10 or 30 μM final concentration) and incubated (200 μL, 96-well plate format) at 37° C. for 30 minutes. The controls were carried out using 2 μL DMSO. After the 30 minute incubation, the reaction was stopped with the addition of 200 μL of cold methanol. The plate was then centrifuged at 3,200 rpm for 10 minutes at room temperature. Supernatants (200 μL) were collected and transferred to a new 96 well plate for analysis.
An 8 point cGMP (Sigma-Aldrich P/N: G6129) standard curve was prepared in assay buffer ranging from 0.156-20 μM. Samples for the cGMP standard curve were then diluted with an equal volume of methanol resulting in final cGMP concentrations of 0.078-10 μM.
The cGMP standard curve was generated using GraphPad Prism Software.
Calculations: Specific Activity was determined by the amount of cGMP formed (nmoles) per mg of sGC per min. Enzyme “fold-change” was calculated by dividing Specific Activity for test compounds by Specific Activity of DMSO controls.

[3] = read-out: HEK WC Assay (% Emax at 10 uM/with 10 uM SNP)
[4] = read-out: HEK WC Assay (% Emax at 30 uM/with 10 uM SNP)

Sequence of soluble guanylate cyclase (sGC) (Q02153 whole entry): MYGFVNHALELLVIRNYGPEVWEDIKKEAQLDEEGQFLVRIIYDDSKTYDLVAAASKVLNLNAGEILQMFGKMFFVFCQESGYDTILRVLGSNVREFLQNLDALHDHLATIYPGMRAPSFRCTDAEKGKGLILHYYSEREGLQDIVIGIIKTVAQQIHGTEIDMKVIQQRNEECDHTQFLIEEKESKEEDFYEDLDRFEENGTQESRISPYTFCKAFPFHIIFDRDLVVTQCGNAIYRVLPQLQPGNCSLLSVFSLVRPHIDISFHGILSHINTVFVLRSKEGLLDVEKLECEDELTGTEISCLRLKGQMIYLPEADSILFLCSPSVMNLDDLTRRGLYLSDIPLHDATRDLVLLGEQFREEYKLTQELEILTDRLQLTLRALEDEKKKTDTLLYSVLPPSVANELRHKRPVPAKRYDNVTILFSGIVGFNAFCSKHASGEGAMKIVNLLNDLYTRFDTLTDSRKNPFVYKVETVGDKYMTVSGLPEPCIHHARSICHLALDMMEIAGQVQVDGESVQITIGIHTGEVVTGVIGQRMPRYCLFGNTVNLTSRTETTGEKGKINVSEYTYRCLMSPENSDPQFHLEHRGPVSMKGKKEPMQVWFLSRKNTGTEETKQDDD
Sequence of soluble guanylate cyclase (sGC) (Q02108 whole entry): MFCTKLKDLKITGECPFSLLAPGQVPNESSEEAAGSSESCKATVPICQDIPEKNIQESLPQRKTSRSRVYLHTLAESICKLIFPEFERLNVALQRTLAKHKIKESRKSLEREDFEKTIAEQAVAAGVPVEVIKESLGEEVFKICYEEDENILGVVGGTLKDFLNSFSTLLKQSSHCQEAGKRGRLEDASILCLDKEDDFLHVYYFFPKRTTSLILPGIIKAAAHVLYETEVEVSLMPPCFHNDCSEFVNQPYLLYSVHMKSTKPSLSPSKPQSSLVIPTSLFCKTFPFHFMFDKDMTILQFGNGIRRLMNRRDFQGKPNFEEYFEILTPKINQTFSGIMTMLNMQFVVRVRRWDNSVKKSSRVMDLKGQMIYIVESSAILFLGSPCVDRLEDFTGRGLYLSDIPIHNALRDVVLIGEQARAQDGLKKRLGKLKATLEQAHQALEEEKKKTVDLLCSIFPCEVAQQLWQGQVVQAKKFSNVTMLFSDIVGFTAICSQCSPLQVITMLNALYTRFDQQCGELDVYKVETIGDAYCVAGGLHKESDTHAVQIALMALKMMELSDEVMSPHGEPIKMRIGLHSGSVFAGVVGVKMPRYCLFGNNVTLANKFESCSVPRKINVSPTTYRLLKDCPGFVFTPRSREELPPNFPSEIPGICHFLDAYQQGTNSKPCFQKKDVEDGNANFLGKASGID
Sequence of Human soluble guanylate cyclase enzyme (hsGC) (Q02153 whole entry): as the sequence (Q02153 whole entry) above
Sequence of Human soluble guanylate cyclase enzyme (hsGC) (Q02108 whole entry): as the sequence (Q02108 whole entry) above

| SMILES | Emax at 10 µM [1, 3] | Emax at 30 µM [1, 4] | sGC Enzyme (specific activity at 10 μM) [2] | sGC Enzyme (fold increase at 10 μM without SNP) [2] | sGC Enzyme (specific activity at 30 μM) [2] | sGC Enzyme (fold increase at 30 μM without SNP) [2] | sGC Enzyme (fold increase at 10 μM) [2] | sGC Enzyme (fold increase at 30 μM) [2] | Emax at 10 µM ([1]; read-out: HEK WC Assay (% Emax at 10 μM/with 10 uM SNP)) | Emax at 30 µM ([1]; read-out: HEK WC Assay (% Emax at 30 μM/with 10 uM SNP)) |
| --- | --- | --- | --- | --- | --- | --- | --- | --- | --- | --- |
| Cc1cc(-c2cc(-c3ccccn3)nn2Cc2ccccc2F)c(C)s1 [Compound I-8] | 0 to 10% | 0 to 10% | C (C = 100 to <200) | A (A = no increase to <2 fold increase) | D (D = 200 to <500) | B (B = 2 to <5 fold increase) |  |  |  |  |
| Fc1cccc(-c2cc(-c3ccccn3)nn2Cc2ccccc2F)c1 [Compound I-9] | 0 to 10% | 0 to 10% | C (C = 100 to <200) | A (A = no increase to <2 fold increase) | C (C = 100 to <200) | B (B = 2 to <5 fold increase) |  |  |  |  |
| Fc1ccc(-c2cc(-c3ccccn3)nn2Cc2ccccc2F)cc1 [Compound I-12] | 0 to 10% | 0 to 10% | C (C = 100 to <200) | A (A = no increase to <2 fold increase) | C (C = 100 to <200) | A (A = no increase to <2 fold increase) |  |  |  |  |
| Cc1cc(-c2cc(-c3ncccn3)nn2Cc2ccccc2F)c(C)s1 [Compound I-14] | 0 to 10% | 0 to 10% | C (C = 100 to <200) | A (A = no increase to <2 fold increase) | C (C = 100 to <200) | A (A = no increase to <2 fold increase) |  |  |  |  |
| CS(=O)(=O)c1ccc(-c2cc(-c3ccccn3)n(Cc3ccccc3F)n2)nc1 [Compound I-50, 2-(1-(2-fluorobenzyl)-5-(pyridin-2-yl)-1H-pyrazol-3-yl)-5-(methylsulfonyl)pyridine] | 0 to 10% | 0 to 10% | B (B = 50 to <100) | A (A = no increase to <2 fold increase) | B (B = 50 to <100) | A (A = no increase to <2 fold increase) |  |  |  |  |
| Fc1ccccc1Cn1nc(-c2ncccn2)cc1-c1cc2ccccc2o1 [Compound I-68] | 0 to 10% | 0 to 10% |  | A (A = no increase to <2 fold increase) |  | A (A = no increase to <2 fold increase) |  |  |  |  |
| COc1ccc(-c2cc(-c3ncccn3)nn2Cc2ccccc2F)cn1 [Compound I-77, 2-(1-(2-fluorobenzyl)-5-(6-methoxypyridin-3-yl)-1H-pyrazol-3-yl)pyrimidine] |  |  |  |  |  |  | A (A = no increase to <2 fold increase) | A (A = no increase to <2 fold increase) |  |  |
| COc1cccc(-c2cc(-c3ccccn3)n(Cc3ccccc3F)n2)n1 [Compound I-78] |  |  |  |  |  |  | A (A = no increase to <2 fold increase) | A (A = no increase to <2 fold increase) |  |  |
| Fc1ccccc1Cn1nc(-c2ccccn2)cc1-c1ncccn1 [Compound I-80] |  |  |  |  |  |  | A (A = no increase to <2 fold increase) | A (A = no increase to <2 fold increase) | 0 to 10% | 0 to 10% |
